# Data: patent US6087376A (priority 1998, dated 2000)
# Key:
# anesthetized rats = conditions: urethane and pentobarbital anesthetized rats; cited from earlier work
# rat striatal slices = assay: Endogenous DA and DOPAC content in striatal slices following superfusion with lobeline; type: cell-based
# Procedure: Data are presented as mean±S.E. ng/mg protein. *P<0.05, different from control, P<0.05, **P<0.001, different from control; Dunnett's post hoc test. n=8 rats.
# At the end of the superfusion experiment, slices were processed in the endogenous DA and DOPAC content assay described below.
# An aliquot (500 μL) of 0.1 M perchloric acid (pH 1.0) containing 0.14-0.29 μM 3,4-dihydroxybenzylamine hydrobromide (DHBA, internal standard) was added to 100 mg of striatum and the mixture was sonicated with an Ultrasonic Processor (40-Watt Model, Sonics & Materials, Danbury, Conn.). The homogenate was centrifuged at 30,000×g for 10 min at 4° C., and the supernatant was filtered (0.2 μm nylon membrane). An aliquot (50 μL) of the filtrate (1:1, 1:50, 1:100, 1:200 or 1:500 dilution with 0.1 M perchloric acid) was injected onto the high pressure liquid chromatograph with electrochemical detection (HPLC-EC) system. The HPLC-EC system consisted of syringe loading injector (Model 7725, Rheodyne L. P., Cotati, Calif.), Beckman Model 116 HPLC pump (Beckman, Fullerton, Calif.), ESA ODS ultrasphere C18 reverse-phase column ([…]×75 mm, 3 micron particle size, ESA, Bedford, Mass.), and an ESA 5100A coulometric electrochemical detector with a model 5011 detector cell (E1=+0.05 V, E2=+0.32 V). The eluent was 6% acetonitrile, 10 μM EDTA, 1.4 mM 1-octane-sulfonic acid and 76 mM sodium phosphate monobasic (pH 3.1). All separations were performed at room temperature at a flow rate of 1 ml/min. Complete separation of DA and DOPAC and reequilibration of the system required 9 min. The retention time of DA, DOPAC and DHBA standards was used to identify the relevant peak. Peak heights were used to calculate the detected amount of compound based on standard curves. The detection limit of DA and DOPAC was 0.2 and 0.05 pg/50 μL injected, respectively. Recovery of internal standard was routinely 75%.
# anxiolytic activity = conditions: in vivo; cited from earlier work
# [1] = biological target: T1, plasma membrane DA transporter (rat striatal synaptosomes) (Rattus norvegicus, UniProt P23977); assay: [3H]DA uptake assay, striatal synaptosomal preparation; type: biochemical; conditions: read-out: IC50, inhibition of [3H]DA uptake into synaptosomes
# T1 construct: from tissue; host or cells: rat striatum, synaptosomes
# Procedure: The homogenate was centrifuged at 2,000×g for 10 min at 4° C. […] The final protein concentration was 400 μg/mL. The assay was performed in duplicate in a total volume of 500 μL. […] The incubation continued for 10 min at 34° C. The reaction was terminated by the addition of 3 mL cold assay buffer (without 1 mM catechol). Samples were rapidly filtered through a Whatman GF/B filter using a Brandel cell harvester (model MP-43 RS, Biochemical Research and Development Laboratories, Inc., Gaithersburg, Md.) and the filter was subsequently washed 3 times with 4 mL of cold assay buffer containing 1 mM catechol. Filters were previously soaked for 2 hrs in the cold assay buffer containing 1 mM catechol. […] Filters were placed into scintillation vials, 10 mL of scintillation cocktail was added and radioactivity was determined by scintillation spectrometry.
# Inhibition of synaptosomal and vesicular [^3 H]DA uptake were analyzed by repeated-measures, one-way ANOVA, and by an iterative nonlinear least-squares curve-fitting program (GraphPAD-PRIZM; GraphPAD, San Diego, Calif.) to obtain IC50 values. Dunnett's post hoc test was used to compare treatment means to a single control mean. Also, Duncan's New Multiple Range Test or Fisher's LSD post hoc analysis were used to compare pairs of treatment means. […]
# [2] = tested on: tachycardia and hypertension; conditions: in vivo; cited from earlier work
# [3] = biological target: central nicotinic receptors; conditions: read-out: Ki, displacement of [3H]nicotine binding; cited from earlier work
# [4] = tested on: mouse striatal synaptosomes; conditions: cited from earlier work
# [5] = cited from earlier work
# [6] = tested on: tobacco smoking cessation; conditions: short-term use as smoking deterrent; cited from earlier work
# [7] = tested on: locomotor activity in rats; conditions: rat, in vivo; cited from earlier work
# [8] = tested on: nicotinic receptors in mouse brain; conditions: in vivo; cited from earlier work
# [9] = tested on: rat striatal slices preloaded with [3H]DA; assay: [3H]DA release assay: drug-evoked [3H]overflow / fractional release from rat striatal slices preloaded with [3H]DA; type: cell-based
# Procedure: Rat striata were rapidly dissected on ice and were sliced using a McIlwain tissue chopper. […] Slices were rinsed with 15 mL fresh buffer and then incubated in fresh buffer containing 0.1 μM [^3 H]DA (6-8 slices/3 mL) for an additional 30 min. Subsequently, slices were rinsed with 15 mL fresh buffer and transferred to a glass superfusion chamber. […] After 60 min of superfusion when basal outflow was stabilized, two 5-min samples (5 mL) were collected to determine basal [^3 H]outflow.
# The concentration-response for each drug was determined using a repeated-measures design.
# The pH and volume of the solubilized tissue samples were adjusted to those of the superfusate samples.
# Fractional release for each superfusate sample was calculated by dividing the tritium collected in each sample by the total tritium present in the tissue at the time of sample collection. Fractional release was expressed as a percentage of total tritium in the tissue at the time of sample collection. Basal outflow was calculated from the average of the tritium collected in the two 5-min samples just before the addition of drug.
# Inhibition of synaptosomal and vesicular [^3 H]DA uptake were analyzed by repeated-measures, one-way ANOVA, and by an iterative nonlinear least-squares curve-fitting program (GraphPAD-PRIZM; GraphPAD, San Diego, Calif.) to obtain IC50 values. Dunnett's post hoc test was used to compare treatment means to a single control mean. Also, Duncan's New Multiple Range Test or Fisher's LSD post hoc analysis were used to compare pairs of treatment means. Duncan's New Multiple Range Test was used when significant one-way ANOVA's were obtained or when significant main effects were obtained in the two-way ANOVA's. Fisher's LSD post hoc analysis is a more conservative test, which takes into account error which cumulates during multiple comparisons of pairs of means. Fisher's LSD analysis was used when the interaction term was significant in the two-way ANOVAs, specifically in the post hoc analysis of drug×time interactions. Statistical significance was reached when P<0.05 (two-tailed, unless otherwise indicated).
# T1 sequence (P23977 whole entry): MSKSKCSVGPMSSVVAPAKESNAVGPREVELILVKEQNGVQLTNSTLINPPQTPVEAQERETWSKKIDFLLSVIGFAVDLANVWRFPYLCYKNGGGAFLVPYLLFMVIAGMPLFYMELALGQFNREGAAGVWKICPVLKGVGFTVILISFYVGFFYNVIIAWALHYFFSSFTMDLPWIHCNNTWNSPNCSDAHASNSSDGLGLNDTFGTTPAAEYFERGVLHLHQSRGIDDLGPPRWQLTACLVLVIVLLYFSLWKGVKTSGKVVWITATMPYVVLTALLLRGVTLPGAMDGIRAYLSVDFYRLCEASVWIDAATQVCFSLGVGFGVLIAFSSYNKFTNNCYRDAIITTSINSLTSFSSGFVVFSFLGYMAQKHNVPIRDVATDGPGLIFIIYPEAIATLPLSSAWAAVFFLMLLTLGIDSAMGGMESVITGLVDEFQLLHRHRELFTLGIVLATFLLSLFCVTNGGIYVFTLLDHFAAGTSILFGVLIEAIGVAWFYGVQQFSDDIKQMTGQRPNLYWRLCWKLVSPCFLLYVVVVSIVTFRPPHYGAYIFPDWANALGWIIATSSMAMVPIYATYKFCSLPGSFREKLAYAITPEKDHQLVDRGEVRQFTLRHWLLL
smiles,measurement,setting,value
"CN1[C@@H](CC(=O)c2ccccc2)CCC[C@H]1C[C@H](O)c1ccccc1 [Lobeline, 2-[G-(β-hydroxyphenethyl)-1-methyl-2-piperidyl]-acetophenone]",cardiovascular effects,anesthetized rats,bradycardia and hypotension
same,DOPAC overflow from rat striatal slices,rat striatal slices,DOPAC overflow from rat striatal slices is observed
same,effect on DA or DOPAC content in superfused slices,"rat striatal slices; lobeline 0.1-10 μM, 60 min",did not alter DA or DOPAC content
same,effect on endogenous DA content in superfused slices,"rat striatal slices; lobeline 30-100 μM, 60 min",significantly depleted endogenous DA content
same,effect on endogenous DOPAC content in superfused slices,"rat striatal slices; lobeline 30-100 μM, 60 min",increased DOPAC content
same,anxiolytic activity,anxiolytic activity,anxiolytic activity
same,IC50,[1],80 ± 12 µM
same,cardiovascular effects,[2],tachycardia and hypertension
same,Ki,[3],0.005 to 0.03 µM
same,DA release from superfused striatal synaptosomes,[4],increase DA release
same,pKa,[5],8.3
same,acute toxicity,[6],"nausea, severe heartburn and dizziness"
same,locomotor activity,[7],does not increase locomotor activity
same,number of nicotinic receptors after chronic treatment,[8],did not increase the number of nicotinic receptors
same,effect on fractional release,"[9]; 3 μM, 15 and 20 min after addition",significant increase in fractional release
same,effect on fractional release (low concentrations),"[9]; 0.01-1 μM, entire superfusion period",did not significantly increase fractional release
same,effect on fractional release (high concentrations),"[9]; 10-100 μM, from 10 min after addition to end",significantly increased
same,calcium-dependency of [3H]overflow,[9]; calcium-free buffer vs control,not altered
same,effect on [3H]overflow compared to nicotine,[9]; higher concentrations (10-100 μM),8-34 fold
same,time of peak effect after start of exposure,[9]; lobeline,10 to 20 min
same,total [3H]overflow,"[9]; lobeline 0.1 μM, calcium-free buffer with 0.5 mM EGTA",0 ± 0
same,total [3H]overflow,"[9]; lobeline 0.1 μM, control buffer",0.6 ± 0.4
same,total [3H]overflow,"[9]; lobeline 1 μM, calcium-free buffer with 0.5 mM EGTA",2.9 ± 0.2
same,total [3H]overflow,"[9]; lobeline 1 μM, control buffer",2.0 ± 0.6
same,total [3H]overflow,"[9]; lobeline 10 μM, calcium-free buffer with 0.5 mM EGTA",45.0 ± 4.2
same,total [3H]overflow,"[9]; lobeline 10 μM, control buffer",31.9 ± 2.2
same,peak fractional release,[9]; lobeline 30 μM,approximately 15 % of total tritium in the slice
same,peak fractional release,[9]; lobeline 100 μM,~30 % of total tritium in the slice
same,total [3H]overflow,"[9]; lobeline 100 μM, calcium-free buffer with 0.5 mM EGTA",185.0 ± 12.0
same,total [3H]overflow,"[9]; lobeline 100 μM, control buffer",198.0 ± 20
same,fractional release over the remainder of the superfusion period,[9]; lobeline 30 and 100 μM,10-20 % of total tritium in the slice
same,minimal effective concentration,[9]; read-out: lowest concentration which evoked a significant increase in [3H]overflow,1 µM
